Results from article PMC10600881 (ACS Omega, 2023).
≈ marks a conversion by molar mass, not a printed value. Where two headings read alike, the source gives them in different places.

Experiments:
E. coli (ATCC25922) = test: Broth microdilution assay, MIC; assay type: cell-based; conditions: Escherichia coli, ATCC25922, read-out: Minimum Inhibitory Concentration
[1] = tested on: P. aeruginosa (ATCC 29853); test: Broth microdilution assay, MIC/MBC; assay type: cell-based; conditions: for MBC / MIC: Pseudomonas aeruginosa; for fold more efficient than amoxicillin / bactericidal or bacteriostatic effect: P. aeruginosa; for fold more efficient than amoxicillin: from MICs; for bactericidal or bacteriostatic effect: MBC/MIC ≤ 4 = bactericidal
S. aureus (ATCC 25923) = test: Broth microdilution assay, MIC; assay type: cell-based; conditions: Staphylococcus aureus, ATCC25923, read-out: Minimum Inhibitory Concentration
C. albicans (ATCC 10231) = test: Broth microdilution assay, antifungal MIC/MFC; assay type: cell-based, Candida albicans; conditions: for ratio (MFC/MIC): C. albicans (ATCC 10231); for MFC / MIC: Candida albicans; for fungicidal or fungistatic behavior: C. albicans, MFC/MIC > 4 = fungistatic
B. subtilis (ATCC 9372) = test: Broth microdilution assay, MIC; assay type: cell-based; conditions: Bacillus subtilis, ATCC9372, read-out: Minimum Inhibitory Concentration
[2] = tested on: M. tuberculosis (RCMB 010126); test: Microplate alamar blue assay; assay type: cell-based, Mycobacterium tuberculosis; conditions: Mycobacterium tuberculosis, RCMB010126, sensitive Mycobacterium tuberculosis (RCMB 010126), MABA
[3] = ATCC29853, read-out: Minimum Inhibitory Concentration
[4] = ATCC10231, read-out: Minimum Inhibitory Concentration

Structure (SMILES) | MIC (E. coli (ATCC25922)) | ratio (MBC/MIC) ([1]; P. aeruginosa (ATCC 29853)) | MBC ([1]; ATCC29853) | MIC ([1]; ATCC29853) | MIC [1, 3] | MIC (S. aureus (ATCC 25923)) | ratio (MFC/MIC) (C. albicans (ATCC 10231)) | MFC (C. albicans (ATCC 10231); ATCC10231) | MIC (C. albicans (ATCC 10231); ATCC10231) | MIC (C. albicans (ATCC 10231); [4]) | MIC (B. subtilis (ATCC 9372)) | MIC [2] | fungicidal or fungistatic behavior (C. albicans (ATCC 10231)) | fold more efficient than amoxicillin [1] | bactericidal or bacteriostatic effect [1] | Minimum Inhibitory Concentration ([1]; P. aeruginosa (ATCC 29853), Gram-negative, Table 1)
COc1ccc(OC)c(C2CC(c3cccs3)=NN2C(N)=S)c1 (stereo not shown) [2b, 4,5-Dihydro-5-(2,5-dimethoxyphenyl)-3-(thiophen-2-yl)pyrazole-1-carbothioamide] | 62.5 µg/mL (≈ 180 µM) | 8 | 500 µg/mL (≈ 1440 µM) | 62.2 µg/mL (≈ 179 µM) | 62.2 µg/mL (≈ 179 µM) | 250 µg/mL (≈ 719 µM) | 4 | 250 µg/mL (≈ 719 µM) | 62.5 µg/mL (≈ 180 µM) | 62.5 µg/mL (≈ 180 µM) | 125 µg/mL (≈ 360 µM) | 15.6 µg/mL (≈ 44.9 µM) |  |  |  | 
Cc1csc(N2N=C(c3cccs3)CC2c2cccs2)n1 (stereo not shown) [3a, 4,5-Dihydro-1-(4-methylthiazol-2-yl)-3,5-di(thiophen-2-yl)-1H-pyrazole] | 500 µg/mL (≈ 1510 µM) | >1 | > 500 µg/mL | > 500 µg/mL | > 500 µg/mL | 250 µg/mL (≈ 754 µM) | >4 | > 500 µg/mL | 125 µg/mL (≈ 377 µM) | 125 µg/mL (≈ 377 µM) | 62.5 µg/mL (≈ 189 µM) | 62.5 µg/mL (≈ 189 µM) | fungistatic |  |  | 
COc1ccc(OC)c(C2CC(c3cccs3)=NN2c2nc(C)cs2)c1 (stereo not shown) [3b, 4,5-Dihydro-5-(2,5-dimethoxyphenyl)-1-(4-methylthiazol-2-yl)-3-(thiophen-2-yl)-1H-pyrazole] | 125 µg/mL (≈ 324 µM) | 8 | 125 µg/mL (≈ 324 µM) | 15.6 µg/mL (≈ 40.5 µM) | 15.6 µg/mL (≈ 40.5 µM) | 250 µg/mL (≈ 648 µM) | 8 | 250 µg/mL (≈ 648 µM) | 31.2 µg/mL (≈ 81.1 µM) | 31.2 µg/mL (≈ 81.1 µM) | 125 µg/mL (≈ 324 µM) | 7.81 µg/mL (≈ 20.3 µM) | fungistatic | approximately 32 fold |  | 
c1ccc(-c2csc(N3N=C(c4cccs4)CC3c3cccs3)n2)cc1 (stereo not shown) [4a, 4,5-Dihydro-1-(4-phenylthiazol-2-yl)-3,5-di(thiophen-2-yl)-1H-pyrazole] | 125 µg/mL (≈ 318 µM) | 4 | 500 µg/mL (≈ 1270 µM) | 125 µg/mL (≈ 318 µM) | 125 µg/mL (≈ 318 µM) | 250 µg/mL (≈ 635 µM) | 4 | 500 µg/mL (≈ 1270 µM) | 125 µg/mL (≈ 318 µM) | 125 µg/mL (≈ 318 µM) | 15.6 µg/mL (≈ 39.7 µM) | 62.5 µg/mL (≈ 159 µM) |  |  | bactericidal | 
COc1ccc(OC)c(C2CC(c3cccs3)=NN2c2nc(-c3ccccc3)cs2)c1 (stereo not shown) [4b, 4,5-Dihydro-5-(2,5-dimethoxyphenyl)-1-(4-phenylthiazol-2-yl)-3-(thiophen-2-yl)-1H-pyrazole] | 125 µg/mL (≈ 279 µM) | 16 | 250 µg/mL (≈ 559 µM) | 15.6 µg/mL (≈ 34.9 µM) | 15.6 µg/mL (≈ 34.9 µM) | 250 µg/mL (≈ 559 µM) | 8 | 500 µg/mL (≈ 1120 µM) | 62.5 µg/mL (≈ 140 µM) | 62.5 µg/mL (≈ 140 µM) | 250 µg/mL (≈ 559 µM) | 31.2 µg/mL (≈ 69.8 µM) | fungistatic | approximately 32 fold |  | 
CCOC(=O)c1sc(N2N=C(c3cccs3)CC2c2cccs2)nc1C (stereo not shown) [5a, Ethyl 2-(4,5-dihydro-3,5-di(thiophen-2-yl)pyrazol-1-yl)-4-methylthiazole-5-carboxylate] | > 500 µg/mL | >1 | > 500 µg/mL | > 500 µg/mL | > 500 µg/mL | 62.5 µg/mL (≈ 155 µM) | 4 | 500 µg/mL (≈ 1240 µM) | 125 µg/mL (≈ 310 µM) | 125 µg/mL (≈ 310 µM) | 3.9 µg/mL (≈ 9.66 µM) | 31.2 µg/mL (≈ 77.4 µM) |  |  |  | 
CCOC(=O)c1sc(N2N=C(c3cccs3)CC2c2cc(OC)ccc2OC)nc1C (stereo not shown) [5b, Ethyl 2-(4,5-dihydro-5-(2,5-dimethoxyphenyl)-3-(thiophen-2-yl)pyrazol-1-yl)-4-methylthiazole-5-carboxylate] | 125 µg/mL (≈ 273 µM) | 2 | 62.2 µg/mL (≈ 136 µM) | 31.2 µg/mL (≈ 68.3 µM) | 31.2 µg/mL (≈ 68.3 µM) | 62.5 µg/mL (≈ 137 µM) | 2 | 125 µg/mL (≈ 273 µM) | 62.5 µg/mL (≈ 137 µM) | 62.5 µg/mL (≈ 137 µM) | 125 µg/mL (≈ 273 µM) | 31.2 µg/mL (≈ 68.3 µM) |  | ~16 fold | bactericidal | 
O=C1CSC(N2N=C(c3cccs3)CC2c2cccs2)=N1 (stereo not shown) [6a, 2-(4,5-Dihydro-3,5-di(thiophen-2-yl)pyrazol-1-yl)thiazol-4(5H)-one] | 125 µg/mL (≈ 375 µM) | 4 | 250 µg/mL (≈ 750 µM) | 62.5 µg/mL (≈ 187 µM) | 62.5 µg/mL (≈ 187 µM) | 250 µg/mL (≈ 750 µM) | 4 | 250 µg/mL (≈ 750 µM) | 62.5 µg/mL (≈ 187 µM) | 62.5 µg/mL (≈ 187 µM) | 125 µg/mL (≈ 375 µM) | 31.2 µg/mL (≈ 93.7 µM) |  |  | bactericidal | 
CC1SC(N2N=C(c3cccs3)CC2c2cccs2)=NC1=O (stereo not shown) [7a, 2-(4,5-Dihydro-3,5-di(thiophen-2-yl)pyrazol-1-yl)-5-methylthiazol-4(5H)-one] | 125 µg/mL (≈ 360 µM) | >1 | > 500 µg/mL | > 500 µg/mL | > 500 µg/mL | > 500 µg/mL | 4 | 250 µg/mL (≈ 719 µM) | 62.5 µg/mL (≈ 180 µM) | 62.5 µg/mL (≈ 180 µM) | 125 µg/mL (≈ 360 µM) | 62.5 µg/mL (≈ 180 µM) |  |  |  | 
COc1ccc(OC)c(C2CC(c3cccs3)=NN2C2=NC(=O)C(C)S2)c1 (stereo not shown) [7b, 2-(4,5-Dihydro-5-(2,5-dimethoxyphenyl)-3-(thiophen-2-yl)pyrazol-1-yl)-5-methylthiazol-4(5H)-one] | 125 µg/mL (≈ 311 µM) | 2 | 250 µg/mL (≈ 623 µM) | 125 µg/mL (≈ 311 µM) | 125 µg/mL (≈ 311 µM) | 250 µg/mL (≈ 623 µM) | 8 | 500 µg/mL (≈ 1250 µM) | 62.5 µg/mL (≈ 156 µM) | 62.5 µg/mL (≈ 156 µM) | 125 µg/mL (≈ 311 µM) | 62.5 µg/mL (≈ 156 µM) | fungistatic |  | bactericidal | 
COc1ccc(C=C2SC(N3N=C(c4cccs4)CC3c3cccs3)=NC2=O)cc1 (stereo not shown) [8a, 5-(4-Methoxybenzylidene)-2-(4,5-dihydro-3,5-di(thiophen-2-yl)pyrazol-1-yl)thiazol-4(5H)-one] | 125 µg/mL (≈ 277 µM) | 8 | 250 µg/mL (≈ 554 µM) | 31.2 µg/mL (≈ 69.2 µM) | 31.2 µg/mL (≈ 69.2 µM) | 250 µg/mL (≈ 554 µM) | 2 | 125 µg/mL (≈ 277 µM) | 62.5 µg/mL (≈ 138 µM) | 62.5 µg/mL (≈ 138 µM) | 125 µg/mL (≈ 277 µM) | 31.2 µg/mL (≈ 69.2 µM) |  | ~16 fold |  | 
COc1ccc(OC)c(C=C2SC(N3N=C(c4cccs4)CC3c3cccs3)=NC2=O)c1 (stereo not shown) [8c, 5-(2,5-Dimethoxybenzylidene)-2-(4,5-dihydro-3,5-di(thiophen-2-yl)pyrazol-1-yl)thiazol-4(5H)-one] | 125 µg/mL (≈ 260 µM) | 8 | 250 µg/mL (≈ 519 µM) | 31.2 µg/mL (≈ 64.9 µM) | 31.2 µg/mL (≈ 64.9 µM) | 62.5 µg/mL (≈ 130 µM) | 2 | 62.2 µg/mL (≈ 129 µM) | 31.2 µg/mL (≈ 64.9 µM) | 31.2 µg/mL (≈ 64.9 µM) | 125 µg/mL (≈ 260 µM) | 7.81 µg/mL (≈ 16.2 µM) |  | ~16 fold |  | 
COc1ccc(OC)c(C=C2SC(N3N=C(c4cccs4)CC3c3cc(OC)ccc3OC)=NC2=O)c1 (stereo not shown) [8d, 5-(2,5-Dimethoxybenzylidene)-2-(4,5-dihydro-5-(2,5-dimethoxyphenyl)-3-(thiophen-2-yl)pyrazol-1-yl)thiazol-4(5H)-one] | 125 µg/mL (≈ 233 µM) | 2 | 125 µg/mL (≈ 233 µM) | 62.2 µg/mL (≈ 116 µM) | 62.2 µg/mL (≈ 116 µM) | 62.5 µg/mL (≈ 117 µM) | 2 | 125 µg/mL (≈ 233 µM) | 62.5 µg/mL (≈ 117 µM) | 62.5 µg/mL (≈ 117 µM) | 125 µg/mL (≈ 233 µM) | 31.2 µg/mL (≈ 58.3 µM) |  |  | bactericidal | 
O=C1N=C(N2N=C(c3cccs3)CC2c2cccs2)SC1=C1C(=O)Nc2ccccc21 (stereo not shown) [9a, 3-(2-(4,5-Dihydro-3,5-di(thiophen-2-yl)pyrazol-1-yl)-4-oxothiazol-5(4H)-ylidene)indolin-2-one] | 125 µg/mL (≈ 270 µM) | 2 | 62.2 µg/mL (≈ 135 µM) | 31.2 µg/mL (≈ 67.6 µM) | 31.2 µg/mL (≈ 67.6 µM) | 62.5 µg/mL (≈ 135 µM) | 2 | 250 µg/mL (≈ 540 µM) | 125 µg/mL (≈ 270 µM) | 125 µg/mL (≈ 270 µM) | 125 µg/mL (≈ 270 µM) | 15.6 µg/mL (≈ 33.7 µM) |  | ~16 fold | bactericidal | 
O=C1CCSC(N2N=C(c3cccs3)CC2c2cccs2)=N1 (stereo not shown) [10a, 5,6-Dihydro-2-(4,5-dihydro-3,5-di(thiophen-2-yl)pyrazol-1-yl)-1,3-thiazin-4-one] | 125 µg/mL (≈ 360 µM) | 4 | 125 µg/mL (≈ 360 µM) | 31.2 µg/mL (≈ 89.9 µM) | 31.2 µg/mL (≈ 89.9 µM) | 125 µg/mL (≈ 360 µM) | 4 | 250 µg/mL (≈ 719 µM) | 62.5 µg/mL (≈ 180 µM) | 62.5 µg/mL (≈ 180 µM) | 62.5 µg/mL (≈ 180 µM) | 31.2 µg/mL (≈ 89.9 µM) |  | ~16 fold | bactericidal | 
CC1(C)S[C@@H]2[C@H](NC(=O)[C@H](N)c3ccc(O)cc3)C(=O)N2[C@H]1C(=O)O [amoxicillin, reference compound] | 62.5 µg/mL (≈ 171 µM) | >1 | > 500 µg/mL | > 500 µg/mL | > 500 µg/mL | 7.8 µg/mL (≈ 21.3 µM) |  |  |  |  | 31.2 µg/mL (≈ 85.5 µM) |  |  |  |  | >500 µg/mL
OC(Cn1cncn1)(Cn1cncn1)c1ccc(F)cc1F [fluconazole, reference compound] |  |  |  |  |  |  | 1 | 250 µg/mL (≈ 816 µM) | 250 µg/mL (≈ 816 µM) | 250 µg/mL (≈ 816 µM) |  |  |  |  |  | 
NNC(=O)c1ccncc1 [isoniazid, reference compound] |  |  |  |  |  |  |  |  |  |  |  | 0.12 µg/mL (≈ 0.875 µM) |  |  |  | 
